The values that follow come from patent US6713623B2, “Tetraphosphonate bicyclic trisanhydrides” (Pharmasset, Ltd., priority 1996, dated 2004).

By Ki is commonly meant a measure of affinity in units of concentration, obtained from inhibition or displacement. As a reminder, the IC50 is the point on the concentration scale where inhibition reaches its midpoint.

One data set deals with human IMPDH type II (Homo sapiens, UniProt P12268). In words: inhibitory activity against human IMPDH type II. Format: biochemical. The note with it: 100 μM NAD, 50 μM IMP, 25 nM enzyme, pH 8.0; read-out: Ki, inhibitor of IMPDH type II.
Another data set relates to glucuronosyltransferases. In words: glucuronidation by glucuronosyltransferases in vitro. It counts as in vitro ADME. The note with it: parallel experiments.
Data set [1] concerns K562 erythroleucemic cells. In words: anti-proliferative activity against K562 cells. It counts as cell-based. The note with it: Homo sapiens, read-out: IC50, growth of K562 cells. As for the experimental part: The compounds of structure 1 are stable in plasma at room temperature for at least several days. It is assayed for both inhibitory activity against human IMPDH type II and for anti-proliferative activity against K562 erythroleucemic cells. […] The ability to induce differentiation in K562 cells is also estimated by determining the fraction of benzidine positive cells converted following incubation with β-methylene-MAD.

Data set [2] relates to inosine monophosphate dehydrogenase (IMPDH). The note with it: Marquez et al., J. Med. Chem. 1986; cited from earlier work.
The target in another data set is IMPDH type I (Homo sapiens, UniProt P20839). The settings on record: Carr et al.; read-out: Ki, IMPDH type I expressed in normal cells; cited from earlier work.
Chain of IMPDH type I (P20839 whole entry): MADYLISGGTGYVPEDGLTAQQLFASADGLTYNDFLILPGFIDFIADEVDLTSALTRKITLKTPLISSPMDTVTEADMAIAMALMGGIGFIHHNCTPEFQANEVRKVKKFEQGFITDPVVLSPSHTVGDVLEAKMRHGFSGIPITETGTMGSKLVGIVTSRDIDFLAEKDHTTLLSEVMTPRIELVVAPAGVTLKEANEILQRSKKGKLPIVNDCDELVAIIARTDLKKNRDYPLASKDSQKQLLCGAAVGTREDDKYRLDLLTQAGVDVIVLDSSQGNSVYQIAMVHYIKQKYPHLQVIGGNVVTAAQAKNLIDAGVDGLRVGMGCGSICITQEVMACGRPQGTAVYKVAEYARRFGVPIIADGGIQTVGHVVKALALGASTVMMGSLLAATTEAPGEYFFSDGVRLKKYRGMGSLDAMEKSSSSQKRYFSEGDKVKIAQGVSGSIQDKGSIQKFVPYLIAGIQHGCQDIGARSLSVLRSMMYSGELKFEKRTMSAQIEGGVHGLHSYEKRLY
The subject of the next data set is tumors. The note with it: quick conversion into the inactive β-glucuronide after administration; cited from earlier work.
For the next data set, the system named is B and T lymphocyte. The note with it: cited from earlier work.

With `COc1c(C)c2c(c(O)c1CC=C(C)CCCOP(=O)(O)CP(=O)(O)OCC1OC(n3cnc4c(N)ncnc43)C(O)C1O)C(=O)OC2` (stereo not drawn) [β-methylene-MAD, P^1-(adenosin-5-yl)-P^2-(mycophenol-5′-yl)methylenebis(phosphonate)], the Ki on human IMPDH type II amounted to 300 nM. The “glucuronidation by various glucuronosyltransferases” value in the data set with glucuronosyltransferases is reported as “completely resistant to glucuronidation”. The IC50 in data set [1] amounted to 6000 nM.
On to `NC(=O)c1csc([C@@H]2O[C@H](COP(=O)(O)CP(=O)(O)OC[C@H]3O[C@@H](n4cnc5c(N)ncnc54)[C@H](O)[C@@H]3O)[C@@H](O)[C@H]2O)n1` [β-methylene TAD], for which the “inhibition of IMPDH” value in data set [2] is recorded as “potent inhibitor”.
`COc1c(C)c2c(c(O)c1C/C=C(\C)CCC(=O)O)C(=O)OC2` [mycophenolic acid, Mycophenolic acid]: the inhibition constant (Ki) on IMPDH type I is 33 to 37 nM. In addition, the activity against tumors entry in the data set on tumors was “inactive”. Also, the “glucuronidation by various glucuronosyltransferases” value with glucuronosyltransferases is recorded as “effectively glucuronidated”. Besides, the “B and T lymphocyte proliferation” value with B and T lymphocyte was “blocks”.
